Assay results taken from patent US20050244359A1, “Topical regulation of triglyceride metabolism” (priority 2004, published 2005).
Where “and” joins values, the source holds several entries; their conditions need not be identical. Equal values may be shown once.

Tested on: epidermal equivalents
Assay: Triglyceride production in living skin samples (epidermal equivalents, MatTek), HPTLC analysis
Type: cell-based
Settings: for net intensity (HPTLC, triglycerides): about 0.1 percent fatty acid, epidermal equivalents cultured for three days, triglycerides extracted in chloroform/methanol (2:1)
Procedure: A set of living skin samples, epidermal equivalents, obtained from MatTek, is tested with a sample of about 0.1 percent palmitoleic acid and about 0.1 percent oleic acid. A media is prepared of a transwell membrane at the air/liquid interface and is cultured for three days. At the end of the incubation period, each skin square is homogenized and its triglycerides extracted in chloroform/methanol (2:1). This is followed by HPTLC analysis. […] After one day of application it is surprising to find the increase in triglyceride concentration in the epidermal equivalents treated with palmitoleic acid. […] The net intensity of oleic acid is 859. In contrast, palmitoleic acid has a net intensity of 1324 and 1212, an average of 1268 net intensity.

## CCCCCC/C=C\CCCCCCCC(=O)O [palmitoleic acid]
  net intensity (HPTLC, triglycerides): 1324 and 1212
About 0.1 percent, average of two values
  average net intensity (HPTLC, triglycerides): 1268
About 0.1 percent, epidermal equivalents, HPTLC
  increase in triglyceride production: ~400%
Epidermal equivalents, HPTLC
  effect on triglyceride production (in words): time and dose-dependent increase in triglyceride production

## CCCCCCCC/C=C\CCCCCCCC(=O)O [oleic acid, reference compound]
  net intensity (HPTLC, triglycerides): 859
Epidermal equivalents, HPTLC
  effect on triglyceride production (in words): little effect
